Measurements reported in PMC11062899, “De novo development of small cyclic peptides that are orally bioavailable” (Nature Chemical Biology, 2023).
Several values for one entry are separate records, joined by “and”; a condition that tells them apart may be missing. Equal entries are not always repeated. Where two headings read alike, the source gives them in different places.

Assays:
porcine pepsin = target: T1, porcine pepsin (Sus scrofa, UniProt P00791); experiment: Peptide stability in simulated gastric fluid (SGF); assay type: in vitro ADME
T1 construct: 0.32 g of porcine pepsin (Sigma-Aldrich, P7125) was dissolved under gentle agitation; purchased Sigma-Aldrich P7125
T1 sequence (P00791 60-385): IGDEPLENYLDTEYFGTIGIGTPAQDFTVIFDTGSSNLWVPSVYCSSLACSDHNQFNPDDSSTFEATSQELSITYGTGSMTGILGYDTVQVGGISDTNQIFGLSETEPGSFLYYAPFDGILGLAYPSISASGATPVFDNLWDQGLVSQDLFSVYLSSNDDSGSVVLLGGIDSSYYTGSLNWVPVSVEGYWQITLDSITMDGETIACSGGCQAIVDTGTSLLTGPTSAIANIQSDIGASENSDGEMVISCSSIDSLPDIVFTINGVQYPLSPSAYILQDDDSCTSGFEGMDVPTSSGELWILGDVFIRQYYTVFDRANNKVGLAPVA
Method in brief: (§1)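 Peptide from a 1 mM DMSO stock was added to fluid pre-warmed at 37 °C. SGF was pH 1.2 NaCl with porcine pepsin (0.32 g per 100 ml), and SIF was pH 6.8 potassium phosphate with porcine pancreatin (1 g per 100 ml). Supernatant peptide was quantified by LC–MS, with residual expressed as T1/T0.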

human α-thrombin = human α-thrombin (Homo sapiens, UniProt P00734); experiment: Protease inhibition, Ki for human α-thrombin (fluorogenic substrate Z-Gly-Gly-Arg-AMC); assay type: biochemical; conditions: human alpha thrombin; for Slope normalized to DMSO (proteolytic substrate cleavage over time): replicates R1-R3
Method in brief: (§2)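 Ki derived through Cheng–Prusoff from IC50s (four-parameter logistic fit) against activity of peptide-free controls. Product fluorescence was read every 3 min over 30 min at 25 °C, substrate Z-Gly-Gly-Arg-AMC at 50 μM. Enzyme was 2 nM human or 3 nM rat α-thrombin, pH 7.4 buffer.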

porcine pancreatin = experiment: Peptide stability in simulated intestinal fluid (SIF); assay type: in vitro ADME; conditions: after 8 h vs 0 h (TIC)
Method in brief: as §1

[1] = as above; assay type: in vitro ADME, porcine; conditions: simulated gi fluid; 8 h, 37 °C, pH 6.8; read-out: Proteolytic stability: SIF (8 h) % remaining
Method in brief: as §1

rat α-thrombin = target: T2, rat α-thrombin (Rattus norvegicus, UniProt P18292); experiment: Protease inhibition, Ki for rat α-thrombin (fluorogenic substrate Z-Gly-Gly-Arg-AMC); assay type: biochemical; conditions: rat alpha thrombin; for Slope normalized to DMSO (proteolytic substrate cleavage over time): replicates R1-R3
T2 construct: rat α-thrombin (Molecular Innovations) were used at final concentrations of 2 nM and 3 nM; purchased Molecular Innovations
Method in brief: as §2

[2] = Passive artificial membrane permeability (PAMPA)

- SGF stability, Residual peptide Average (porcine pepsin; after 8 h vs 0 h (TIC), average of R1-R3): 87.04
- SGF stability, Residual peptide (porcine pepsin; after 8 h vs 0 h (TIC), single replicates R1-R3): 86.50 and 93.65 and 80.97
- remaining at 8 h (porcine pepsin; simulated gi fluid, 8 h, 37 °C, pH 1.2, read-out: Proteolytic stability: SGF (8 h) % remaining): 87 ± 6%
- Ki (human α-thrombin; average of R1-R3, read-out: Ki Average, human alpha thrombin inhibition): 286 nM
- Slope normalized to DMSO (proteolytic substrate cleavage over time) (human α-thrombin; peptide 1.02E-03 uM): 96.6 and 96.1 and 97.6
- Slope normalized to DMSO (proteolytic substrate cleavage over time) (human α-thrombin; peptide 1.04E+00 uM): 45.5 and 28.3 and 38.4
- Slope normalized to DMSO (proteolytic substrate cleavage over time) (human α-thrombin; peptide 1.27E-04 uM): 99.5 and 101.3 and 100.1
- Slope normalized to DMSO (proteolytic substrate cleavage over time) (human α-thrombin; peptide 1.30E-01 uM): 62.0 and 52.8 and 61.8
- Slope normalized to DMSO (proteolytic substrate cleavage over time) (human α-thrombin; peptide 1.59E-05 uM): 98.6 and 105.1 and 101.6
- Slope normalized to DMSO (proteolytic substrate cleavage over time) (human α-thrombin; peptide 1.63E-02 uM): 86.9 and 79.7 and 80.1
- Slope normalized to DMSO (proteolytic substrate cleavage over time) (human α-thrombin; peptide 1.67E+01 uM): 5.9 and 8.4 and 12.3
- Slope normalized to DMSO (proteolytic substrate cleavage over time) (human α-thrombin; peptide 2.03E-03 uM): 95.9 and 89.0 and 96.4
- Slope normalized to DMSO (proteolytic substrate cleavage over time) (human α-thrombin; peptide 2.08E+00 uM): 22.1 and 26.4 and 30.9
- Slope normalized to DMSO (proteolytic substrate cleavage over time) (human α-thrombin; peptide 2.54E-04 uM): 98.5 and 99.2 and 101.9
- Slope normalized to DMSO (proteolytic substrate cleavage over time) (human α-thrombin; peptide 2.60E-01 uM): 51.6 and 49.5 and 56.4
- Slope normalized to DMSO (proteolytic substrate cleavage over time) (human α-thrombin; peptide 3.18E-05 uM): 101.8 and 100.2 and 98.7
- Slope normalized to DMSO (proteolytic substrate cleavage over time) (human α-thrombin; peptide 3.26E-02 uM): 82.4 (2×) and 76.9
- Slope normalized to DMSO (proteolytic substrate cleavage over time) (human α-thrombin; peptide 3.33E+01 uM): 6.3 and 6.8 and 11.7
- Slope normalized to DMSO (proteolytic substrate cleavage over time) (human α-thrombin; peptide 4.07E-03 uM): 100.1 and 90.9 and 93.8
- Slope normalized to DMSO (proteolytic substrate cleavage over time) (human α-thrombin; peptide 4.17E+00 uM): 10.9 and 18.5 and 22.2
- Slope normalized to DMSO (proteolytic substrate cleavage over time) (human α-thrombin; peptide 5.09E-04 uM): 105.8 and 102.8 and 98.4
- Slope normalized to DMSO (proteolytic substrate cleavage over time) (human α-thrombin; peptide 5.21E-01 uM): 63.9 and 55.1 and 63.1
- Slope normalized to DMSO (proteolytic substrate cleavage over time) (human α-thrombin; peptide 6.36E-05 uM): 96.6 and 96.9 and 98.9
- Slope normalized to DMSO (proteolytic substrate cleavage over time) (human α-thrombin; peptide 6.51E-02 uM): 69.9 and 61.7 and 72.5
- Slope normalized to DMSO (proteolytic substrate cleavage over time) (human α-thrombin; peptide 6.67E+01 uM): 8.8 and 12.5 and 11.5
- Slope normalized to DMSO (proteolytic substrate cleavage over time) (human α-thrombin; peptide 7.95E-06 uM): 102.0 and 99.6 and 99.3
- Slope normalized to DMSO (proteolytic substrate cleavage over time) (human α-thrombin; peptide 8.14E-03 uM): 95.5 and 84.9 and 92.8
- Slope normalized to DMSO (proteolytic substrate cleavage over time) (human α-thrombin; peptide 8.33E+00 uM): 4.1 and 13.8 and 13.6
- IC50 (human α-thrombin; single replicates R1-R3, read-out: IC50, human alpha thrombin inhibition): 453 nM and 218 nM and 444 nM
- Ki (human α-thrombin; single replicates R1-R3, read-out: Ki, human alpha thrombin inhibition): 349 nM and 168 nM and 342 nM
- SIF stability, Residual peptide Average (porcine pancreatin; average of R1-R3): 42.16
- SIF stability, Residual peptide (porcine pancreatin; single replicates R1-R3): 44.45 and 36.26 and 45.77
- remaining at 8 h [1]: 42 ± 5%
- Ki (rat α-thrombin; average of R1-R3, read-out: Ki Average, rat alpha thrombin inhibition): 27.1 nM
- Slope normalized to DMSO (proteolytic substrate cleavage over time) (rat α-thrombin; peptide 1.02E-03 uM): 95.7 and 93.2 and 92.5
- Slope normalized to DMSO (proteolytic substrate cleavage over time) (rat α-thrombin; peptide 1.04E+00 uM): 20.0 and 16.8 and 13.2
- Slope normalized to DMSO (proteolytic substrate cleavage over time) (rat α-thrombin; peptide 1.27E-04 uM): 100.2 (2×) and 94.0
- Slope normalized to DMSO (proteolytic substrate cleavage over time) (rat α-thrombin; peptide 1.30E-01 uM): 40.2 and 33.7 and 29.3
- Slope normalized to DMSO (proteolytic substrate cleavage over time) (rat α-thrombin; peptide 1.59E-05 uM): 102.8 and 104.6 and 99.0
- Slope normalized to DMSO (proteolytic substrate cleavage over time) (rat α-thrombin; peptide 1.63E-02 uM): 70.9 and 69.0 and 58.5
- Slope normalized to DMSO (proteolytic substrate cleavage over time) (rat α-thrombin; peptide 1.67E+01 uM): 6.7 and 7.6 and -3.8
- Slope normalized to DMSO (proteolytic substrate cleavage over time) (rat α-thrombin; peptide 2.03E-03 uM): 92.4 and 90.4 and 105.7
- Slope normalized to DMSO (proteolytic substrate cleavage over time) (rat α-thrombin; peptide 2.08E+00 uM): 14.7 and 13.1 and 8.2
- Slope normalized to DMSO (proteolytic substrate cleavage over time) (rat α-thrombin; peptide 2.54E-04 uM): 98.1 and 97.6 and 92.4
- Slope normalized to DMSO (proteolytic substrate cleavage over time) (rat α-thrombin; peptide 2.60E-01 uM): 33.9 and 26.8 and 32.5
- Slope normalized to DMSO (proteolytic substrate cleavage over time) (rat α-thrombin; peptide 3.18E-05 uM): 102.6 and 99.4 and 97.6
- Slope normalized to DMSO (proteolytic substrate cleavage over time) (rat α-thrombin; peptide 3.26E-02 uM): 65.2 and 58.8 and 53.9
- Slope normalized to DMSO (proteolytic substrate cleavage over time) (rat α-thrombin; peptide 3.33E+01 uM): 6.5 and 6.8 and 3.9
- Slope normalized to DMSO (proteolytic substrate cleavage over time) (rat α-thrombin; peptide 4.07E-03 uM): 89.6 and 87.8 and 79.0
- Slope normalized to DMSO (proteolytic substrate cleavage over time) (rat α-thrombin; peptide 4.17E+00 uM): 10.5 and 9.5 and 2.3
- Slope normalized to DMSO (proteolytic substrate cleavage over time) (rat α-thrombin; peptide 5.09E-04 uM): 97.9 and 94.9 and 105.4
- Slope normalized to DMSO (proteolytic substrate cleavage over time) (rat α-thrombin; peptide 5.21E-01 uM): 40.1 and 33.7 and 38.8
- Slope normalized to DMSO (proteolytic substrate cleavage over time) (rat α-thrombin; peptide 6.36E-05 uM): 100.2 and 99.0 and 96.8
- Slope normalized to DMSO (proteolytic substrate cleavage over time) (rat α-thrombin; peptide 6.51E-02 uM): 49.2 and 44.9 and 38.0
- Slope normalized to DMSO (proteolytic substrate cleavage over time) (rat α-thrombin; peptide 6.67E+01 uM): 8.1 and 8.3 and 4.7
- Slope normalized to DMSO (proteolytic substrate cleavage over time) (rat α-thrombin; peptide 7.95E-06 uM): 104.1 and 101.6 and 100.1
- Slope normalized to DMSO (proteolytic substrate cleavage over time) (rat α-thrombin; peptide 8.14E-03 uM): 83.6 and 78.8 and 74.4
- Slope normalized to DMSO (proteolytic substrate cleavage over time) (rat α-thrombin; peptide 8.33E+00 uM): 19.0 and 7.9 and 5.9
- IC50 (rat α-thrombin; single replicates R1-R3, read-out: IC50, rat alpha thrombin inhibition): 60.7 nM and 43.2 nM and 43 nM
- PAMPA permeability: % permeability ([2]; 50 μM, 12–18 h, acceptor concentration relative to equilibrium): 26 ± 9%
- Papp at 50 μM ([2]; PAMPA, pH 7.4): 2.88 ×10⁻⁶ cm/s
- Permeability% Average ([2]; top well sample vs theoretical equilibrium sample (TIC), average of R1-R3): 26.1%
- Permeability% ([2]; top well sample vs theoretical equilibrium sample (TIC), single replicates R1-R3): 30.77% and 15.94% and 31.49%
SMILES: O=C1C[C@H]2CCCN2C(=O)[C@H](Cc2ccccc2)NC(=O)[C@@H](NC(=O)c2ccc(Cl)s2)CCCSC/C=C/CSCCN1 [compound 36]
- Ki (rat α-thrombin; single replicates R1-R3, read-out: Ki, rat alpha thrombin inhibition): 33.6 nM (2×) and 23.9 nM (2×) and 23.8 nM (2×)
